From ChEMBL document CHEMBL1142686, “CoMFA, synthesis, and pharmacological evaluation of (E)-3-(2-carboxy-2-arylvinyl)-4,6-dichloro-1H-indole-2-carboxylic acids: 3-[2-(3-aminophenyl)-2-carboxyvinyl]-4,6-dichloro-1H-indole-2-carboxylic acid, a potent selective glycine-site NMDA receptor antagonist” (J Med Chem, 2005)

Target: Glutamate NMDA receptor
Experiment: Antagonist activity of compound against rat N-methyl-D-aspartate glutamate receptor using 11 nM [3H]glycine
Assay type: functional

IC50 [nM] | SMILES
65 | O=C(O)/C(=C/c1c(C(=O)O)[nH]c2cc(Cl)cc(Cl)c12)c1ccc(Cl)cc1
4660 | N#C/C(=C/c1c(C(=O)O)[nH]c2cc(Cl)cc(Cl)c12)c1ccc(N)cc1
117 | COc1cccc(/C(=C\c2c(C(=O)O)[nH]c3cc(Cl)cc(Cl)c23)C(=O)O)c1
136 | COc1ccc(/C(=C\c2c(C(=O)O)[nH]c3cc(Cl)cc(Cl)c23)C(=O)O)cc1
20 | NC(=O)/C(=C/c1c(C(=O)O)[nH]c2cc(Cl)cc(Cl)c12)c1ccccc1
29 | O=C(O)/C(=C/c1c(C(=O)O)[nH]c2cc(Cl)cc(Cl)c12)c1ccc(Br)cc1

Continued, molecule first:

SMILES | IC50 [nM]
O=C(O)/C(=C/c1c(C(=O)O)[nH]c2cc(Cl)cc(Cl)c12)c1ccncc1 | 151
O=C(O)/C(=C/c1c(C(=O)O)[nH]c2cc(Cl)cc(Cl)c12)c1ccc(Cl)cc1Cl | 116
O=C(NCCc1ccccc1)/C(=C/c1c(C(=O)O)[nH]c2cc(Cl)cc(Cl)c12)c1ccccc1 | 224
CN(C)C(=O)/C(=C/c1c(C(=O)O)[nH]c2cc(Cl)cc(Cl)c12)c1ccccc1 | 68
O=C(O)/C(=C/c1c(C(=O)O)[nH]c2cc(Cl)cc(Cl)c12)c1ccccn1 | 1020
O=C(Nc1ccccc1)/C(=C/c1c(C(=O)O)[nH]c2cc(Cl)cc(Cl)c12)c1ccccc1 | 15
O=C(O)c1[nH]c2cc(Cl)cc(Cl)c2c1/C=C/C(=O)N1CCCCC1 | 38
O=C(O)/C(=C/c1c(C(=O)O)[nH]c2cc(Cl)cc(Cl)c12)c1ccccc1Cl | 212
CN(C)c1cccc(/C(=C\c2c(C(=O)O)[nH]c3cc(Cl)cc(Cl)c23)C(=O)O)c1 | 225
O=C(O)/C(=C\c1c(C(=O)O)[nH]c2cc(Cl)cc(Cl)c12)c1ccccc1 | 157
O=C(O)/C(=C/c1c(C(=O)O)[nH]c2cc(Cl)cc(Cl)c12)c1cccnc1 | 126
CNC(=O)/C(=C/c1c(C(=O)O)[nH]c2cc(Cl)cc(Cl)c12)c1ccccc1 | 50
O=C(O)/C(=C/c1c(C(=O)O)[nH]c2cc(Cl)cc(Cl)c12)c1ccoc1 | 21
